In PubChem BioAssay (NCI) one finds GI50 and TGI data, which are given here for 17 compounds.

Where “and” joins values, the source holds several entries; their conditions need not be identical. Equal entries are not always repeated.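 Test compounds were applied to cells in 96-well plates for 48 hours at 5 doses. GI50: concentration for 50% inhibition of growth. At the TGI there is no net growth.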 Some results are limits rather than exact numbers.

In one assay the test system is HT29 colon. The experiment in a line: DTP human tumour cell line panel, 48 h.
For the compound `COc1ccc(-c2ccc(-c3ccc(C(=N)N)s3)s2)cc1`, the GI50 was 0.181 µM and the TGI is 0.375 µM.
`COC(=O)/C=C/c1c(CC=C(C)C)ncn1C` returned a concentration for total growth inhibition (TGI) of more than 100 µM.
Turning to `OCc1ccn2c1[C@@H](O)CC2`, the concentration for total growth inhibition (TGI) is more than 100 µM.
Regarding `Cc1[nH]c(/C=C2\C(=O)Nc3ccccc32)c(C)c1CCC(=O)O`, the GI50 was 27 µM and the TGI is more than 80.8 µM.
`c1ccc2c(c1)c1c(c3ccccc32)CN2CCCC2C1` (stereo not given): the total growth inhibition concentration (TGI) was more than 34.8 µM.
The same measure, in the same setting: the value for `O=S(=O)(c1ccccc1)C1CN2OC1(S(=O)(=O)c1ccccc1)CC2c1ccc(Br)cc1` (stereo not given) was more than 100 µM.
For the compound `O=C(c1ccc(/C=C/c2n[nH]c3ccccc23)cc1)N1CCNCC1`, the GI50 is 2.04 µM and 2.44 µM; the TGI was 4.77 µM and 15.3 µM.
Turning to `CCOC(=O)c1c(NC(=O)c2cccc(C(F)(F)F)c2)sc2c(CN(C)C)c(O)ccc12`, the GI50 is 2.21 µM and the TGI amounted to 5.05 µM.
Take `O=C(Nc1ccc(-n2ccc3c(NC(=O)c4ccccc4)nccc32)cc1)Nc1ccc(Cl)c(Cl)c1`: the GI50 is 0.664 µM and the TGI stood at 2.33 µM.

For a further assay, the system named is HCT-15 colon. The experiment in a line: DTP human tumour cell line panel, 48 h.
`O=C1NC(=O)/C(=C\c2ccccc2)C2=C1CCCC2`: the GI50 was 10.4 µM and the TGI stood at 22.5 µM.
The like results for `CN(CCO)c1ccc(N2Cc3ccccc3OC3=C2C(=O)c2c(O)ccc(O)c2C3=O)cn1` were, in that order, 0.127 µM and 0.484 µM.
Turning to `CC[C@H]1CN2CCc3cc(OC)c(OC)cc3[C@@H]2C[C@@H]1C[C@H]1NCCc2c1[nH]c1ccc(O)cc21`, the GI50 was 0.688 µM; the total growth inhibition concentration (TGI) was 5.38 µM and 4.1 µM.
`CCCCCOc1ccc(/C=N/Nc2cc(C)nc3ccc(Br)cc23)cc1`: the GI50 was 1.57 µM and the TGI was 3.13 µM.
As for `CC(=O)Oc1ccccc1C(=O)Nc1ncc([N+](=O)[O-])s1`, the GI50 is 2.94 µM; the TGI is 31.3 µM and > 95 µM.
For `CCN(Cc1ccccc1C)c1ccc(CO)c(Cl)c1`, the GI50 was 8.57 µM and the total growth inhibition concentration (TGI) amounted to 29.3 µM.
`O=C(O)CC(NC(=O)CP(=O)(O)O)C(=O)O` (stereo not given) came in with a concentration for total growth inhibition (TGI) of 9160 µM.
Regarding `Cn1cc(C2=C(c3cccc(Br)c3)C(=O)NC2=O)c2ccccc21`, the GI50 was 9.24 µM and the TGI is more than 25 µM.
In the same order, the values of `COc1ccc(-c2ccc(-c3ccc(C(=N)N)s3)s2)cc1` are 0.195 µM and 0.415 µM.
Consider `COC(=O)/C=C/c1c(CC=C(C)C)ncn1C`, for which the concentration for total growth inhibition (TGI) is more than 100 µM.
Take `OCc1ccn2c1[C@@H](O)CC2`: the TGI is more than 100 µM.
On the same count and under the same terms, the value for `Cc1[nH]c(/C=C2\C(=O)Nc3ccccc32)c(C)c1CCC(=O)O` was more than 100 µM; that for `c1ccc2c(c1)c1c(c3ccccc32)CN2CCCC2C1` (stereo not given) was more than 70.4 µM.
On to `O=S(=O)(c1ccccc1)C1CN2OC1(S(=O)(=O)c1ccccc1)CC2c1ccc(Br)cc1` (stereo not given), for which the TGI is more than 100 µM.
As for `O=C(c1ccc(/C=C/c2n[nH]c3ccccc23)cc1)N1CCNCC1`, the GI50 was 1.5 µM and 3.47 µM.
Consider `CCOC(=O)c1c(NC(=O)c2cccc(C(F)(F)F)c2)sc2c(CN(C)C)c(O)ccc12`, for which the GI50 was 2.13 µM and the TGI is 5.77 µM.
On to `O=C(Nc1ccc(-n2ccc3c(NC(=O)c4ccccc4)nccc32)cc1)Nc1ccc(Cl)c(Cl)c1`, for which the GI50 is 0.201 µM and the TGI was found to be 2.84 µM.

The next assay deals with LOX IMVI melanoma. The assay can be described thus: DTP human tumour cell line panel, 48 h.
Regarding `O=C1NC(=O)/C(=C\c2ccccc2)C2=C1CCCC2`, the GI50 is 1.85 µM and the concentration for total growth inhibition (TGI) was 4.06 µM.
In the same order, the values of `CN(CCO)c1ccc(N2Cc3ccccc3OC3=C2C(=O)c2c(O)ccc(O)c2C3=O)cn1` are 0.114 µM and 0.33 µM.
Turning to `CC[C@H]1CN2CCc3cc(OC)c(OC)cc3[C@@H]2C[C@@H]1C[C@H]1NCCc2c1[nH]c1ccc(O)cc21`, the GI50 was 0.00434 µM and 0.0207 µM; the TGI was 0.0223 µM and 0.0902 µM and < 0.0107 µM.
`CCCCCOc1ccc(/C=N/Nc2cc(C)nc3ccc(Br)cc23)cc1`: the GI50 is 1.86 µM and the concentration for total growth inhibition (TGI) turned out to be 3.64 µM.
Take `CC(=O)Oc1ccccc1C(=O)Nc1ncc([N+](=O)[O-])s1`: the GI50 was 2.74 µM; the total growth inhibition concentration (TGI) was 14.5 µM and > 100 µM.
For the compound `CCN(Cc1ccccc1C)c1ccc(CO)c(Cl)c1`, the GI50 was 17.6 µM and the TGI turned out to be 33 µM.
`O=C(O)CC(NC(=O)CP(=O)(O)O)C(=O)O` (stereo not given) gave a TGI of 824 µM.
In the case of `Cn1cc(C2=C(c3cccc(Br)c3)C(=O)NC2=O)c2ccccc21`, the GI50 was 12 µM and the concentration for total growth inhibition (TGI) was more than 25 µM.
The like results for `COc1ccc(-c2ccc(-c3ccc(C(=N)N)s3)s2)cc1` were, in that order, 0.191 µM and 0.382 µM.
Turning to `COC(=O)/C=C/c1c(CC=C(C)C)ncn1C`, the TGI was more than 100 µM.
On to `OCc1ccn2c1[C@@H](O)CC2`, for which the TGI is more than 100 µM.
Consider `Cc1[nH]c(/C=C2\C(=O)Nc3ccccc32)c(C)c1CCC(=O)O`, for which the GI50 was 23.1 µM; the TGI is 75.9 µM and 89.2 µM.
In the case of `c1ccc2c(c1)c1c(c3ccccc32)CN2CCCC2C1` (stereo not given), the total growth inhibition concentration (TGI) was determined as 9.46 µM. This lies in the single-digit micromolar range.
Same read-out and setting: the value for `O=S(=O)(c1ccccc1)C1CN2OC1(S(=O)(=O)c1ccccc1)CC2c1ccc(Br)cc1` (stereo not given) was more than 100 µM.
`O=C(c1ccc(/C=C/c2n[nH]c3ccccc23)cc1)N1CCNCC1`: the GI50 is 1.76 µM and 2.34 µM; the TGI was 3.26 µM and 12.2 µM.
Consider `CCOC(=O)c1c(NC(=O)c2cccc(C(F)(F)F)c2)sc2c(CN(C)C)c(O)ccc12`, for which the GI50 was 2.7 µM and the total growth inhibition concentration (TGI) turned out to be 7.52 µM.
In the same order, the values of `O=C(Nc1ccc(-n2ccc3c(NC(=O)c4ccccc4)nccc32)cc1)Nc1ccc(Cl)c(Cl)c1` are 0.503 µM and 2.28 µM.
